Measurements published in the supplement of paper PMC10307832.

Key:
Test in all cases: relative viability (nuclei count vs DMSO), 5 days (fraction); higher = more cells survive
[1] = compound: NCC(=O)Nc1ccc(-n2nc(C(F)(F)F)cc2-c2ccc3c(ccc4ccccc43)c2)cc1 + Cc1cc(Nc2cc(N3CCN(C)CC3)nc(Sc3ccc(NC(=O)C4CC4)cc3)n2)n[nH]1 [Tozasertib] (partner 0.1 µM)
In short: (§1)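 Lung cancer cell lines in 1536-well plates got either a single drug or a fixed anchor-drug dose together with five library-drug doses (not always all listed) in √10 steps, by pin tool, on the day after seeding. Nuclei were counted after 5 days, and relative viability is the treated-to-vehicle ratio of nuclei counts. Values are medians of duplicate plates.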

[2] = compound: NCC(=O)Nc1ccc(-n2nc(C(F)(F)F)cc2-c2ccc3c(ccc4ccccc43)c2)cc1 + CC1(C)CCC(c2ccc(Cl)cc2)=C(CN2CCN(c3ccc(C(=O)NS(=O)(=O)c4ccc(N[C@H](CCN5CCOCC5)CSc5ccccc5)c(S(=O)(=O)C(F)(F)F)c4)cc3)CC2)C1 [Navitoclax] (partner 0.5 µM)
In short: as §1

[3] = compound: C1CSC2=C(C(=O)N1)SC3=C2C=C(C=C3)O [kb NB 142-70] + CC(C)C[C@H](NC(=O)[C@H](Cc1ccccc1)NC(=O)c1cnccn1)B(O)O [Bortezomib] (partner 0.002 µM)
In short: as §1

[4] = compound: C1CSC2=C(C(=O)N1)SC3=C2C=C(C=C3)O [kb NB 142-70] + COc1cccc2cc(-c3nc([C@H]4CC[C@H](C(=O)O)CC4)n4ncnc(N)c34)[nH]c12 [OSI-027] (partner 0.5 µM)
In short: as §1

[5] = compound: C1CSC2=C(C(=O)N1)SC3=C2C=C(C=C3)O [kb NB 142-70] + Nc1nc2[nH]cc(CCc3ccc(C(=O)N[C@@H](CCC(=O)O)C(=O)O)cc3)c2c(=O)[nH]1 [Pemetrexed] (partner 0.2 µM)
In short: as §1

UMC-11
relative viability ([1]; first compound 0.02 µM): 0.191
relative viability ([1]; first compound 0.06325 µM): 0.21
relative viability ([1]; first compound 0.2 µM): 0.218
relative viability ([1]; first compound 0.6325 µM): 0.19
relative viability ([1]; first compound 2 µM): 0.183
relative viability ([2]; first compound 0.02 µM): 0.303
relative viability ([2]; first compound 0.06325 µM): 0.349
relative viability ([2]; first compound 0.2 µM): 0.35
relative viability ([2]; first compound 0.6325 µM): 0.304
relative viability ([2]; first compound 2 µM): 0.328
relative viability ([3]; first compound 0.1 µM): 0.667
relative viability ([3]; first compound 1 µM): 0.806
relative viability ([3]; first compound 3.162 µM): 0.703
relative viability ([4]; first compound 0.1 µM): 0.463
relative viability ([4]; first compound 1 µM): 0.468
relative viability ([4]; first compound 3.162 µM): 0.298
relative viability ([5]; first compound 0.1 µM): 0.861
relative viability ([5]; first compound 1 µM): 0.779
relative viability ([5]; first compound 3.162 µM): 0.549
